Source: paper PMC7180572, “5-Alkylamino-N-phenylpyrazine-2-carboxamides: Design, Preparation, and Antimycobacterial Evaluation” (Molecules, 2020)
Values after ≈ are worked out from the molar mass of the structure shown. Values joined by “and” are separate entries in the source; they are usually repeats but may differ in a detail not shown here. Equal values may be shown once. Read-outs that look alike come from different tables or passages of the source.

Tests used:
[1] = tested on: Candida parapsilosis ATCC 22019, CCM 8260; assay: Antifungal microdilution broth method (EUCAST); assay type: cell-based; settings: Lodderomyces parapsilosis, read-out: MIC CP
[2] = tested on: Aspergillus fumigatus ATCC 204305; assay: Antifungal microdilution broth method (EUCAST); assay type: cell-based; settings: read-out: MIC AF
[3] = tested on: Pseudomonas aeruginosa ATCC 27853, CCM 3955; assay: Antibacterial microdilution broth method (EUCAST); assay type: cell-based; settings: read-out: MIC PA
[4] = tested on: Candida albicans ATCC 24433, CCM 8320; assay: Antifungal microdilution broth method (EUCAST); assay type: cell-based; settings: read-out: MIC CA
[5] = tested on: Staphylococcus epidermidis ATCC 12228, CCM 4418; assay: Antibacterial microdilution broth method (EUCAST); assay type: cell-based; settings: read-out: MIC SE
[6] = tested on: Mycobacterium smegmatis DSM 43465 (ATCC 607); assay: Microdilution broth, modified Microplate Alamar Blue Assay, whole cell growth inhibition; assay type: cell-based; settings: Mycolicibacterium smegmatis, read-out: MIC Mycobacterium smegmatis
[7] = tested on: Aspergillus flavus CCM 8363; assay: Antifungal microdilution broth method (EUCAST); assay type: cell-based; settings: read-out: MIC AFla
[8] = tested on: Mycobacterium aurum DSM 43999 (ATCC 23366); assay: Microdilution broth, modified Microplate Alamar Blue Assay, whole cell growth inhibition; assay type: cell-based; settings: Mycolicibacterium aurum, read-out: MIC Mycobacterium aurum
[9] = tested on: Acinetobacter baumanii ATCC 19606, DSM 30007; assay: Antibacterial microdilution broth method (EUCAST); assay type: cell-based; settings: Acinetobacter baumannii
[10] = tested on: Staphylococcus aureus methicillin resistant ATCC 43300, CCM 4750; assay: microbe, parasite or virus in culture; assay type: cell-based; settings: ATCC 43300 / CCM 4750 / MRSA, read-out: MIC MRSA
[11] = tested on: Candida krusei ATCC 6258, CCM 8271; assay: Antifungal microdilution broth method (EUCAST); assay type: cell-based; settings: Pichia kudriavzevii, read-out: MIC CK
[12] = tested on: Candida tropicalis ATCC 750, CCM 8264; assay: Antifungal microdilution broth method (EUCAST); assay type: cell-based; settings: read-out: MIC CT
[13] = tested on: Enterococcus faecalis ATCC 29212, CCM 4224; assay: Antibacterial microdilution broth method (EUCAST); assay type: cell-based; settings: read-out: MIC EF
[14] = tested on: Trichophyton interdigitale ATCC 9533, CCM 8377; assay: Antifungal microdilution broth method (EUCAST); assay type: cell-based; settings: read-out: MIC TI
[15] = tested on: Staphylococcus aureus spp.aureus ATCC 29213, CCM 4223; assay: Antibacterial microdilution broth method (EUCAST); assay type: cell-based; settings: read-out: MIC SA
[16] = tested on: Absidia corymbifera CCM 8077 (Lichtheimia corymbifera); assay: Antifungal microdilution broth method (EUCAST); assay type: cell-based; settings: read-out: MIC AC
[17] = tested on: Escherichia coli ATCC 25922, CCM 3954; assay: Antibacterial microdilution broth method (EUCAST); assay type: cell-based; settings: read-out: MIC EC
HepG2 cells = assay: HepG2 cytotoxicity, CellTiter 96 (MTS) assay; assay type: cell-based, human; settings: for IC50: Homo sapiens, HepG2, 24 h, read-out: HepG2 IC50
[18] = tested on: Klebsiella pneumoniae ATCC 10031, CCM 4415; assay: Antibacterial microdilution broth method (EUCAST)
[19] = tested on: Mycobacterium tuberculosis H37Ra ITM-M006710 (ATCC 9431); assay: Microdilution broth, modified Microplate Alamar Blue Assay, whole cell growth inhibition; assay type: cell-based; settings: Mycobacterium tuberculosis, read-out: MIC Mtb H37Ra
[20] = in vitro, Middlebrook 7H9 broth, resazurin

CCCCNc1cnc(C(=O)Nc2cccc(C(F)(F)F)c2)cn1 [Compound 1b, 5-(Butylamino)-N-(3-(trifluoromethyl)phenyl)pyrazine-2-carboxamide]
MIC ([1]; 24 h): > 125 µM | MIC ([1]; 48 h): > 125 µM | MIC ([2]; ATCC204305, 24 h): > 125 µM | MIC ([2]; ATCC204305, 48 h): > 125 µM | MIC ([3]; 72 h): > 500 µM | MIC ([3]; 120 h): > 500 µM | melting point: 141 to 142 °C | MIC ([4]; 24 h): > 125 µM | MIC ([4]; 48 h): > 125 µM | MIC ([5]; 24 h): > 500 µM | MIC ([5]; 48 h): > 500 µM | MIC [6]: 3.13 µg/mL (≈ 9.25 µM) | MIC ([7]; CCM8363, 24 h): > 125 µM | MIC ([7]; CCM8363, 48 h): > 125 µM | MIC [8]: 6.25 µg/mL (≈ 18.5 µM) | MIC ([9]; 24h): > 500 µM | MIC ([9]; 48h): > 500 µM | MIC ([10]; 24 h): > 500 µM | MIC ([10]; 48 h): > 500 µM | MIC ([11]; 24 h): > 125 µM | MIC ([11]; 48 h): > 125 µM | MIC ([12]; 24 h): > 125 µM | MIC ([12]; 48 h): > 125 µM | MIC ([13]; 24 h): > 500 µM | MIC ([13]; 48 h): > 500 µM | MIC ([14]; 72 h): > 125 µM | MIC ([14]; 120 h): > 125 µM | MIC ([15]; 24 h): > 500 µM | MIC ([15]; 48 h): > 500 µM | MIC ([16]; CCM8077, 24 h): > 125 µM | MIC ([16]; CCM8077, 48 h): > 125 µM | MIC ([17]; 24 h): > 500 µM | MIC ([17]; 48 h): > 500 µM | IC50 (HepG2 cells): 126 µM | SI, selectivity index (HepG2 cells; IC50 (HepG2)/MIC against Mtb H37Ra (in µM)): 14 and 13.6 | MIC KP ([18]; 24h): > 500 µM | MIC KP ([18]; 48h): > 500 µM | MIC ([19]; MIC converted to µM): 9.24 µM | MIC [19, 20]: 3.13 µg/mL

CCCCCCCNc1cnc(C(=O)Nc2ccc(CC)cc2)cn1 [Compound 5e, N-(4-ethylphenyl)-5-(heptylamino)pyrazine-2-carboxamide]
MIC ([1]; 24 h): > 125 µM | MIC ([1]; 48 h): > 125 µM | MIC ([2]; ATCC204305, 24 h): > 125 µM | MIC ([2]; ATCC204305, 48 h): > 125 µM | MIC ([3]; 72 h): > 500 µM | MIC ([3]; 120 h): > 500 µM | melting point: 131 to 132 °C | MIC ([4]; 24 h): > 125 µM | MIC ([4]; 48 h): > 125 µM | MIC ([5]; 24 h): > 500 µM | MIC ([5]; 48 h): > 500 µM | MIC [6]: ≥ 500 µg/mL | MIC ([7]; CCM8363, 24 h): > 125 µM | MIC ([7]; CCM8363, 48 h): > 125 µM | MIC [8]: ≥ 500 µg/mL | MIC ([9]; 24h): > 500 µM | MIC ([9]; 48h): > 500 µM | MIC ([10]; 24 h): > 500 µM | MIC ([10]; 48 h): > 500 µM | MIC ([11]; 24 h): > 125 µM | MIC ([11]; 48 h): > 125 µM | MIC ([12]; 24 h): > 125 µM | MIC ([12]; 48 h): > 125 µM | MIC ([13]; 24 h): > 500 µM | MIC ([13]; 48 h): > 500 µM | MIC ([14]; 72 h): > 125 µM | MIC ([14]; 120 h): > 125 µM | MIC ([15]; 24 h): > 500 µM | MIC ([15]; 48 h): > 500 µM | MIC ([16]; CCM8077, 24 h): > 125 µM | MIC ([16]; CCM8077, 48 h): > 125 µM | MIC ([17]; 24 h): > 500 µM | MIC ([17]; 48 h): > 500 µM | IC50 (HepG2 cells): > 25 µM | MIC KP ([18]; 24h): > 500 µM | MIC KP ([18]; 48h): > 500 µM | MIC [19, 20]: ≥ 500 µg/mL

CCCCCCCNc1cnc(C(=O)Nc2cccc(C(F)(F)F)c2)cn1 [Compound 1e, 5-(Heptylamino)-N-(3-(trifluoromethyl)phenyl)pyrazine-2-carboxamide]
MIC ([1]; 24 h): > 500 µM | MIC ([1]; 48 h): > 500 µM | MIC ([2]; ATCC204305, 24 h): > 500 µM | MIC ([2]; ATCC204305, 48 h): > 500 µM | MIC ([3]; 72 h): > 500 µM | MIC ([3]; 120 h): > 500 µM | melting point: 148 to 149 °C | MIC ([4]; 24 h): > 500 µM | MIC ([4]; 48 h): > 500 µM | MIC ([5]; 24 h): > 500 µM | MIC ([5]; 48 h): > 500 µM | MIC [6]: ≥ 500 µg/mL | MIC ([7]; CCM8363, 24 h): > 500 µM | MIC ([7]; CCM8363, 48 h): > 500 µM | MIC [8]: 62.5 µg/mL (≈ 164 µM) | MIC ([9]; 24h): > 500 µM | MIC ([9]; 48h): > 500 µM | MIC ([10]; 24 h): > 500 µM | MIC ([10]; 48 h): > 500 µM | MIC ([11]; 24 h): > 500 µM | MIC ([11]; 48 h): > 500 µM | MIC ([12]; 24 h): > 500 µM | MIC ([12]; 48 h): > 500 µM | MIC ([13]; 24 h): > 500 µM | MIC ([13]; 48 h): > 500 µM | MIC ([14]; 72 h): > 500 µM | MIC ([14]; 120 h): > 500 µM | MIC ([15]; 24 h): > 500 µM | MIC ([15]; 48 h): > 500 µM | MIC ([16]; CCM8077, 24 h): > 500 µM | MIC ([16]; CCM8077, 48 h): > 500 µM | MIC ([17]; 24 h): > 500 µM | MIC ([17]; 48 h): > 500 µM | IC50 (HepG2 cells): 223 µM | MIC KP ([18]; 24h): > 500 µM | MIC KP ([18]; 48h): > 500 µM | MIC [19, 20]: ≥ 500 µg/mL
